This is an account of results in the OligoGym collection.

HELM strings list units from the 5' end as sugar, base in round brackets, then linkage (d deoxyribose, r ribose, m 2'-O-methyl, p phosphodiester). Strings are as the collection lists them; they lack the last nucleoside at the 3' end of the tested compound. [moe] = 2'-O-(2-methoxyethyl) (MOE); [sp] = phosphorothioate linkage; [m5C] = 5-methylcytosine

This data set concerns the target UBE3A-ATS. The experiment in a line: mouse, dose not given. As to conditions: ASO.
With “RNA1{[moe](G)[sp].[moe]([m5C])p.[moe]([m5C])p.[moe](A)p.[moe](G)p.[moe](G)p.d(T)[sp].d(G)[sp].d(T)[sp].d([m5C])[sp].d(T)[sp].d(T)[sp].d(A)[sp].d(T)[sp].d(A)[sp].d(T)[sp].[moe]([m5C])p.[moe](T)[sp].[moe](A)}$$$$ (last 3' nucleoside missing)”, the 3 h FOB score came out at 0 score 0-7.
As to “RNA1{[moe]([m5C])[sp].[moe](A)p.[moe](A)p.[moe](G)p.[moe](A)p.d([m5C])[sp].d([m5C])[sp].d(T)[sp].d(A)[sp].d(T)[sp].d(A)[sp].d(G)[sp].d(G)[sp].d(A)[sp].d([m5C])[sp].[moe]([m5C])p.[moe](T)p.[moe]([m5C])[sp].[moe](A)}$$$$ (last 3' nucleoside missing)”, the 3 h FOB score amounted to 3 score 0-7.
The value for “RNA1{[moe](T)[sp].[moe](T)p.[moe](T)p.[moe]([m5C])p.[moe](A)p.d(T)[sp].d([m5C])[sp].d(A)[sp].d(G)[sp].d(T)[sp].d(T)[sp].d(A)[sp].d(G)[sp].d(T)[sp].d([m5C])[sp].[moe](A)p.[moe](G)p.[moe](G)[sp].[moe](T)}$$$$ (last 3' nucleoside missing)” was 2 score 0-7; that for “RNA1{[moe](T)[sp].[moe](G)p.[moe]([m5C])p.[moe](T)p.[moe]([m5C])p.[moe](A)p.d(G)[sp].d(T)[sp].d(T)[sp].d(A)[sp].d(G)[sp].d(G)[sp].d(T)[sp].d(T)[sp].d(A)[sp].d(G)[sp].[moe](T)p.[moe](G)[sp].[moe]([m5C])}$$$$ (last 3' nucleoside missing)” was 4 score 0-7.
“RNA1{[moe](G)[sp].[moe](G)p.[moe](T)p.[moe]([m5C])p.[moe](A)p.[moe](T)[sp].d([m5C])[sp].d(T)[sp].d([m5C])[sp].d(G)[sp].d(G)[sp].d(G)[sp].d(T)[sp].d(A)[sp].[moe](T)p.[moe](A)[sp].[moe](T)}$$$$ (last 3' nucleoside missing)” gave a 3 h FOB score of 6 score 0-7.
In turn, “RNA1{[moe](G)[sp].[moe]([m5C])p.[moe](T)p.[moe](G)p.[moe](A)p.d(T)[sp].d([m5C])[sp].d(A)[sp].d([m5C])[sp].d(A)[sp].d(T)[sp].d(T)[sp].d(A)[sp].d([m5C])[sp].d([m5C])[sp].[moe]([m5C])p.[moe](A)p.[moe](T)[sp].[moe]([m5C])}$$$$ (last 3' nucleoside missing)” displayed a 3 h FOB score of 0 score 0-7.
“RNA1{[moe](G)[sp].[moe](G)p.[moe]([m5C])p.[moe](T)p.[moe](T)p.d(T)[sp].d(A)[sp].d(T)[sp].d(A)[sp].d([m5C])[sp].d(T)[sp].d(T)[sp].d(T)[sp].d(A)[sp].d([m5C])[sp].[moe]([m5C])p.[moe]([m5C])p.[moe](A)[sp].[moe](A)}$$$$ (last 3' nucleoside missing)” yielded a 3 h FOB score of 1 score 0-7.
Under “RNA1{[moe](T)[sp].[moe](G)p.[moe](G)p.[moe]([m5C])p.[moe](T)p.d(T)[sp].d(T)[sp].d(A)[sp].d(T)[sp].d(A)[sp].d([m5C])[sp].d(T)[sp].d(T)[sp].d(T)[sp].d(A)[sp].[moe]([m5C])p.[moe]([m5C])p.[moe]([m5C])[sp].[moe](A)}$$$$ (last 3' nucleoside missing)” stands 0.7 score 0-7; under “RNA1{[moe](G)[sp].[moe]([m5C])p.[moe](T)p.[moe](T)p.[moe](T)p.d(A)[sp].d(T)[sp].d(A)[sp].d([m5C])[sp].d(T)[sp].d(T)[sp].d(T)[sp].d(A)[sp].d([m5C])[sp].d([m5C])[sp].[moe]([m5C])p.[moe](A)p.[moe](A)[sp].[moe]([m5C])}$$$$ (last 3' nucleoside missing)”, 1 score 0-7.
As to “RNA1{[moe](G)[sp].[moe](G)p.[moe](T)p.[moe]([m5C])p.[moe]([m5C])p.d(A)[sp].d(T)[sp].d(A)[sp].d(G)[sp].d(A)[sp].d(T)[sp].d(G)[sp].d(T)[sp].d([m5C])[sp].d(A)[sp].[moe](G)p.[moe](T)p.[moe](T)[sp].[moe](A)}$$$$ (last 3' nucleoside missing)”, the 3 h FOB score amounted to 5.5 score 0-7.
The value for “RNA1{[moe](G)[sp].[moe]([m5C])p.[moe](A)p.[moe](T)p.[moe](A)[sp].d([m5C])[sp].d([m5C])[sp].d([m5C])[sp].d(A)[sp].d(G)[sp].d(G)[sp].d(G)[sp].d(T)[sp].[moe](A)p.[moe](G)p.[moe](G)[sp].[moe](A)}$$$$ (last 3' nucleoside missing)” was 1 score 0-7; that for “RNA1{[moe](T)[sp].[moe]([m5C])p.[moe](T)p.[moe](G)p.[moe]([m5C])p.d(T)[sp].d([m5C])[sp].d(A)[sp].d(G)[sp].d(T)[sp].d(T)[sp].d(A)[sp].d(G)[sp].d(G)[sp].d(T)[sp].[moe](T)p.[moe](A)p.[moe](G)[sp].[moe](T)}$$$$ (last 3' nucleoside missing)” was 7 score 0-7.
“RNA1{[moe](G)[sp].[moe](T)p.[moe]([m5C])p.[moe](A)p.d(T)[sp].d([m5C])[sp].d(T)[sp].d([m5C])[sp].d(G)[sp].d(G)[sp].d(G)[sp].d(T)[sp].d(A)[sp].d(T)[sp].[moe](A)p.[moe](T)p.[moe](A)p.[moe](A)[sp].[moe](A)}$$$$ (last 3' nucleoside missing)” registered a 3 h FOB score of 4 score 0-7.
The value for “RNA1{[moe](G)[sp].[moe]([m5C])[sp].[moe]([m5C])[sp].[moe](T)[sp].[moe](A)[sp].d(A)[sp].d(T)[sp].d(A)[sp].d(T)[sp].d(G)[sp].d(T)[sp].d(G)[sp].d(T)[sp].d([m5C])[sp].d(A)[sp].[moe](T)[sp].[moe]([m5C])[sp].[moe]([m5C])[sp].[moe](T)}$$$$ (last 3' nucleoside missing)” was 6.8 score 0-7.
“RNA1{[moe](A)[sp].[moe](G)p.[moe]([m5C])p.[moe](T)p.[moe](T)p.d(T)[sp].d(A)[sp].d(G)[sp].d(T)[sp].d(A)[sp].d(T)[sp].d(G)[sp].d(T)[sp].d([m5C])[sp].d(G)[sp].[moe](A)p.[moe](G)p.[moe](A)[sp].[moe](A)}$$$$ (last 3' nucleoside missing)”: the 3 h FOB score came to 4.2 score 0-7.
As for “RNA1{[moe](T)[sp].[moe](G)p.[moe](A)p.[moe](T)[sp].d([m5C])[sp].d(A)[sp].d([m5C])[sp].d(A)[sp].d(T)[sp].d(T)[sp].d(A)[sp].d([m5C])[sp].[moe]([m5C])p.[moe]([m5C])p.[moe](A)p.[moe](T)[sp].[moe]([m5C])}$$$$ (last 3' nucleoside missing)”, the 3 h FOB score stood at 0 score 0-7.
“RNA1{[moe](T)[sp].[moe]([m5C])p.[moe](A)p.[moe]([m5C])[sp].d([m5C])[sp].d(A)[sp].d(T)[sp].d(T)[sp].d(T)[sp].d(T)[sp].d(G)[sp].d(A)[sp].[moe]([m5C])p.[moe]([m5C])p.[moe](T)p.[moe](T)[sp].[moe]([m5C])}$$$$ (last 3' nucleoside missing)” had a 3 h FOB score of 0.3 score 0-7.
The value for “RNA1{[moe](A)[sp].[moe](G)p.[moe](G)p.[moe](T)p.[moe]([m5C])p.[moe](A)p.d(A)[sp].d([m5C])[sp].d([m5C])[sp].d(A)[sp].d(A)[sp].d(T)[sp].d(T)[sp].d(T)[sp].d(G)[sp].d([m5C])[sp].[moe](T)p.[moe](A)[sp].[moe](T)}$$$$ (last 3' nucleoside missing)” was 5.3 score 0-7.
